Experimental findings from article PMC6934184, “Selective DNA-PKcs inhibition extends the therapeutic index of localized radiotherapy and chemotherapy” (The Journal of Clinical Investigation, 2019) are described below.

The assay concerns the target T1, LIMK1 (Homo sapiens, UniProt P53667).
T1 construct: purchased Thermo Fisher Scientific (Life Technologies) SelectScreen
Description: SelectScreen LanthaScreen. Format: binding. Conditions: read-out: % displacement. In a few lines: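 SelectScreen broad panel; activity (Z'LYTE, Adapta) plus binding formats. ATP: Km app for CSF1R Z'LYTE; 10 for CAMK1 Adapta. Readout = % per kinase.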
(Time-resolved FRET reads energy transfer from a long-lived donor to a nearby acceptor.)

T1 sequence (P53667 whole entry): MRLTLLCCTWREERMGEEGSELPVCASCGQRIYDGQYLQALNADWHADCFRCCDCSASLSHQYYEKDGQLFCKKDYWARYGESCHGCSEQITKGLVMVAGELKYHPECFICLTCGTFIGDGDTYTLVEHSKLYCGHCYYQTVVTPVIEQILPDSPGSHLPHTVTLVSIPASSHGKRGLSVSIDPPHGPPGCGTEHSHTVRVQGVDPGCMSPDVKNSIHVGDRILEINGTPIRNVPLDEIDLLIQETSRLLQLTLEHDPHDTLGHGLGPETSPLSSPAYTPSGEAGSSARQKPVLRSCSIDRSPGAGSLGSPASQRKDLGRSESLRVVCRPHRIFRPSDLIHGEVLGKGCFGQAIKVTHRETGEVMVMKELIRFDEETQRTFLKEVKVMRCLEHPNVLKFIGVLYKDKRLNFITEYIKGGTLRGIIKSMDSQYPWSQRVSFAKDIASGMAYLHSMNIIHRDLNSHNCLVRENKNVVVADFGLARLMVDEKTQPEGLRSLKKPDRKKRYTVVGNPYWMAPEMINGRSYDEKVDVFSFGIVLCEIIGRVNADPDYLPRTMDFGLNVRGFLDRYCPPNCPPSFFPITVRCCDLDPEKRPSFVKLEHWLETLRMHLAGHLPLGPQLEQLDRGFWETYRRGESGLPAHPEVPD

As to `CN(C(=O)CN1CCOCC1)c1ccc2sc3c(-c4cccc5c(=O)cc(N6CC7CCC(C6)O7)oc45)cccc3c2c1` [NU5455], the inhibition at 1 µM is -1.7%.
